# Assay results as given in patent US7087375B1, “Method for determining the mechanism of HIV RT inhibitors” (priority 2000, dated 2006).
# Several values for one entry are separate records, joined by “and”; a condition that tells them apart may be missing. Identical values can stand only once. Like-named read-outs stand apart in the source and are kept apart here. Marks after values point to notes of the source that are not given here.
# How the values were obtained:
# Type in all cases: biochemical
# [1] = molecular target: T1, HIV-1 RT wild type (HXB2) (Human immunodeficiency virus type 1 group M subtype B, UniProt P04585); conditions: for Fold resistance in RT-assay relative to HXB2: wild type HXB2 RT (reference); for Ki / Ki/Km: wild type HXB2 RT
# T1 construct: The final RT products, in a heterodimeric form (p66/p51); made in house; host or cells: E. coli XL1-Blue (vector pKK233-2)
# HIV-1 RT mutant 41/215 = HIV-1 RT mutant 41/215 (Human immunodeficiency virus type 1 group M subtype B, UniProt P04585, M628L/T802Y); test: RT inhibition assay (Lenti RT, polyrA/oligo(dT), BrdUTP); conditions: 41/215 RT
# [2] = molecular target: T2, HIV-1 RT mutant 41/184/215 (Human immunodeficiency virus type 1 group M subtype B, UniProt P04585, M628L/M771V/T802Y); conditions: 41/184/215 RT
# T2 construct: The final RT products, in a heterodimeric form (p66/p51); made in house; host or cells: E. coli XL1-Blue (vector pKK233-2)
# [3] = molecular target: T3, HIV-1 RT mutant 41/67/70/215 (Human immunodeficiency virus type 1 group M subtype B, UniProt P04585, D654N/K657R/M628L/T802Y); conditions: 41/67/70/215 RT
# T3 construct: The final RT products, in a heterodimeric form (p66/p51); made in house; host or cells: E. coli XL1-Blue (vector pKK233-2)
# [4] = molecular target: T4, HIV-1 RT mutant 41/67/70/184/215 (Human immunodeficiency virus type 1 group M subtype B, UniProt P04585, D654N/K657R/M628L/M771V/T802Y); conditions: 41/67/70/184/215 RT
# T4 construct: The final RT products, in a heterodimeric form (p66/p51); made in house; host or cells: E. coli XL1-Blue (vector pKK233-2)
# [5] = molecular target: T5, HIV-1 RT mutant 41/67/70/184/210/211/214/215 (Human immunodeficiency virus type 1 group M subtype B, UniProt P04585, D654N/K657R/L797W/L801F/M628L/M771V/R798K/T802Y); conditions: 41/67/70/184/210/211/214/215 RT
# T5 construct: The final RT products, in a heterodimeric form (p66/p51); made in house; host or cells: E. coli XL1-Blue (vector pKK233-2)
# HIV-1 RT mutant 69S-SS = molecular target: T6, HIV-1 RT mutant 69S-SS (Human immunodeficiency virus type 1 group M subtype B, UniProt P04585, INS655SS/T656S); conditions: 69S-SS RT
# T6 construct: The final RT products, in a heterodimeric form (p66/p51); made in house; host or cells: E. coli XL1-Blue (vector pKK233-2)
# [6] = molecular target: T7, HIV-1 RT mutant 41/69S-SS/215 (Human immunodeficiency virus type 1 group M subtype B, UniProt P04585, INS655SS/M628L/T656S/T802Y); conditions: 41/69S-SS/215 RT
# T7 construct: The final RT products, in a heterodimeric form (p66/p51); made in house; host or cells: E. coli XL1-Blue (vector pKK233-2)
# HIV-1 RT mutant 69S-SG = molecular target: T8, HIV-1 RT mutant 69S-SG (Human immunodeficiency virus type 1 group M subtype B, UniProt P04585, INS655SS/T656G/T656S); conditions: 69S-SG RT
# T8 construct: The final RT products, in a heterodimeric form (p66/p51); made in house; host or cells: E. coli XL1-Blue (vector pKK233-2)
# HIV-1 RT mutant 69S-AG = molecular target: T9, HIV-1 RT mutant 69S-AG (Human immunodeficiency virus type 1 group M subtype B, UniProt P04585, INS655SA/T656G/T656S); conditions: 69S-AG RT
# T9 construct: The final RT products, in a heterodimeric form (p66/p51); made in house; host or cells: E. coli XL1-Blue (vector pKK233-2)
# [7] = no extra additions (without ATP)
# [8] = nontreated pyrophosphatase ATP 3.2 mM (control), single experiment
# [9] = pyrophosphatase treated ATP 3.2 mM, single experiment
substance,measurement,setting,value
AZT-TP,Fold resistance in RT-assay relative to HXB2,[1]; ATP 3.2 mM,1.0 fold
same,Fold resistance in RT-assay relative to HXB2,[1]; without ATP,1.0 fold
same,Ki,[1]; ATP 3.2 mM,10 nM
same,Ki/Km,[1]; ATP 3.2 mM,0.032
same,Ki,[1]; ATP 3.2 mM + PPi 150 μM,59 nM
same,Ki/Km,[1]; ATP 3.2 mM + PPi 150 μM,0.11
same,Ki,[1]; ATP 6.0 mM,40 nM
same,Ki/Km,[1]; ATP 6.0 mM,0.049
same,Ki,[1]; ATP […],4.8 nM
same,Ki/Km,[1]; ATP […],0.02
same,Ki,[1]; GTP 0.5 mM,9 nM
same,Ki/Km,[1]; GTP 0.5 mM,0.028
same,Ki,[1]; PPi 150 μM,26 nM
same,Ki/Km,[1]; PPi 150 μM,0.087
same,Ki,[1]; [7],5.8 nM
same,Ki/Km,[1]; [7],0.034
same,Fold resistance in RT-assay relative to HXB2,HIV-1 RT mutant 41/215; ATP 3.2 mM,3 fold and 2.9 fold
same,Ki,HIV-1 RT mutant 41/215; ATP 3.2 mM,34 nM
same,Ki/Km,HIV-1 RT mutant 41/215; ATP 3.2 mM,0.094
same,level of resistance in RT assay relative to wild type,HIV-1 RT mutant 41/215; GTP 0.5 mM,1.2–1.3 fold
same,level of resistance in RT assay relative to wild type,HIV-1 RT mutant 41/215; PPi 150 μM,1.1 fold
same,Fold resistance in RT-assay relative to HXB2,HIV-1 RT mutant 41/215; without ATP,0.8 fold
same,Ki,HIV-1 RT mutant 41/215; without ATP,3 nM
same,Ki/Km,HIV-1 RT mutant 41/215; without ATP,0.027
same,Fold resistance in RT-assay relative to HXB2,[2]; ATP 3.2 mM,5.9 fold
same,Ki/Km,[2]; ATP 3.2 mM,0.19
same,Fold resistance in RT-assay relative to HXB2,[2]; without ATP,1.3 fold
same,Ki,[2]; without ATP,2.2 nM
same,Ki/Km,[2]; without ATP,0.045
same,Fold resistance in RT-assay relative to HXB2,[3]; ATP 3.2 mM,16.6 fold and 16.6 (+/−0.3) fold
same,Ki,[3]; ATP 3.2 mM,39 nM
same,Ki/Km,[3]; ATP 3.2 mM,0.53
same,Fold resistance in RT-assay relative to HXB2,[3]; ATP 3.2 mM + PPi 150 μM,12.6 fold and 12.6 (+/−3) fold
same,Ki,[3]; ATP 3.2 mM + PPi 150 μM,280 nM
same,Ki/Km,[3]; ATP 3.2 mM + PPi 150 μM,1.39
same,Fold resistance in RT-assay relative to HXB2,[3]; ATP 6.0 mM,15.9 (+/−4) fold
same,Ki,[3]; ATP 6.0 mM,176 nM
same,Ki/Km,[3]; ATP 6.0 mM,0.78
same,Ki,[3]; ATP […],6.4 nM
same,Ki/Km,[3]; ATP […],0.1
same,Fold resistance in RT-assay relative to HXB2,[3]; GTP 0.5 mM,1.2 (+/−0.03) fold
same,Ki,[3]; GTP 0.5 mM,4 nM
same,Ki/Km,[3]; GTP 0.5 mM,0.034
same,Fold resistance in RT-assay relative to HXB2,[3]; PPi 150 μM,10.5 fold and 10.5 (+/−3) fold
same,Ki,[3]; PPi 150 μM,83 nM
same,Ki/Km,[3]; PPi 150 μM,0.92
same,Fold resistance in RT-assay relative to HXB2,[3]; [7],0.9 fold and 0.9 (+/−0.1) fold
same,Ki/Km,[3]; [7],0.03
same,Ki,[3]; [8],20 nM
same,Ki/Km,[3]; [8],0.46*
same,Ki,[3]; [9],16 nM
same,Ki/Km,[3]; [9],0.42*
same,Fold resistance in RT-assay relative to HXB2,[4]; ATP 3.2 mM,4.1 fold
same,Ki,[4]; ATP 3.2 mM,50 nM
same,Ki/Km,[4]; ATP 3.2 mM,0.13
same,Fold resistance in RT-assay relative to HXB2,[4]; without ATP,0.3 fold
same,Ki,[4]; without ATP,0.6 nM
same,Ki/Km,[4]; without ATP,0.01
same,Fold resistance in RT-assay relative to HXB2,[5]; ATP 3.2 mM,2.8 fold
same,Ki,[5]; ATP 3.2 mM,52 nM
same,Ki/Km,[5]; ATP 3.2 mM,0.09
same,Fold resistance in RT-assay relative to HXB2,[5]; without ATP,0.3 fold
same,Ki,[5]; without ATP,1.3 nM
same,Ki/Km,[5]; without ATP,0.011
same,Fold resistance in RT-assay relative to HXB2,HIV-1 RT mutant 69S-SS; ATP 3.2 mM,3.0 fold
same,Ki,HIV-1 RT mutant 69S-SS; ATP 3.2 mM,21 nM
same,Ki/Km,HIV-1 RT mutant 69S-SS; ATP 3.2 mM,0.095
same,Fold resistance in RT-assay relative to HXB2,HIV-1 RT mutant 69S-SS; without ATP,0.8 fold
same,Ki,HIV-1 RT mutant 69S-SS; without ATP,1.7 nM
same,Ki/Km,HIV-1 RT mutant 69S-SS; without ATP,0.026
same,Fold resistance in RT-assay relative to HXB2,[6]; ATP 3.2 mM,20 fold and 19.7 fold
same,Ki,[6]; ATP 3.2 mM,133 nM
same,Ki/Km,[6]; ATP 3.2 mM,0.63
same,Fold resistance in RT-assay relative to HXB2,[6]; without ATP,0.9 fold
same,Ki,[6]; without ATP,1.4 nM
same,Ki/Km,[6]; without ATP,0.031
same,Fold resistance in RT-assay relative to HXB2,HIV-1 RT mutant 69S-SG; ATP 3.2 mM,8.4 fold
same,Ki,HIV-1 RT mutant 69S-SG; ATP 3.2 mM,96 nM
same,Ki/Km,HIV-1 RT mutant 69S-SG; ATP 3.2 mM,0.27
same,Fold resistance in RT-assay relative to HXB2,HIV-1 RT mutant 69S-SG; without ATP,1.1 fold
same,Ki,HIV-1 RT mutant 69S-SG; without ATP,3.8 nM
same,Ki/Km,HIV-1 RT mutant 69S-SG; without ATP,0.038
same,Fold resistance in RT-assay relative to HXB2,HIV-1 RT mutant 69S-AG; ATP 3.2 mM,14.0 fold
same,Ki,HIV-1 RT mutant 69S-AG; ATP 3.2 mM,125 nM
same,Ki/Km,HIV-1 RT mutant 69S-AG; ATP 3.2 mM,0.45
same,level of resistance in RT assay relative to wild type,HIV-1 RT mutant 69S-AG; GTP 0.5 mM,1.2–1.3 fold
same,level of resistance in RT assay relative to wild type,HIV-1 RT mutant 69S-AG; PPi 150 μM,3.3
same,Fold resistance in RT-assay relative to HXB2,HIV-1 RT mutant 69S-AG; without ATP,1.9 fold
same,Ki,HIV-1 RT mutant 69S-AG; without ATP,6.4 nM
same,Ki/Km,HIV-1 RT mutant 69S-AG; without ATP,0.064
